Experiment [1] addresses T1, renin (Homo sapiens, UniProt P00797).
T1 construct: purchased Cayman Chemicals 10006217
T1 sequence (P00797 67-406): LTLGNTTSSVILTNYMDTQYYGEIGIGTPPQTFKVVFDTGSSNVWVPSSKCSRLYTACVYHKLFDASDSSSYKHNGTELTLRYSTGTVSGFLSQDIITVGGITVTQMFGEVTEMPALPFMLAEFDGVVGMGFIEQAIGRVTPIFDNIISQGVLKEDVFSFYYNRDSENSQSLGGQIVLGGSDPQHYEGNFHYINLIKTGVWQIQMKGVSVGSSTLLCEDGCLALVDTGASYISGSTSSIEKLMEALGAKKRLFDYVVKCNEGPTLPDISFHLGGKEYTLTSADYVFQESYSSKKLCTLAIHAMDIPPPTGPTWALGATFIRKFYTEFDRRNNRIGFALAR
The experiment in a line: Kinetics of renin inhibition (Lineweaver-Burk). Type of experiment: biochemical. To be noted: for Mode of renin inhibition: double reciprocal plot; for K′m / V′max / Ki: renin; for Ki: secondary plot of Lineweaver-Burk slopes, read-out: Ki (enzyme-inhibitor dissociation constant). The method, then: (§1) Kinetics of ACE and renin inhibition was determined using a previously described method. For ACE inhibition, the substrate (FAPGG) concentrations were 0.0625, 0.125, 0.25 and 0.5 mM, while renin substrate concentrations were 1.25, 2.5, 5 and 10 µM. Peptide concentrations used during the assays are shown in Tables 1 and 2 for the kinetics of ACE and renin inhibition, respectively. The modes of ACE and renin inhibition were determined from Lineweaver-Burk plots while inhibition parameters (Vmax and Km) were calculated, respectively, as the Y and X-axis intercepts of the primary plot. Ki was calculated as the X-axis intercept of the line obtained from a secondary plot of Lineweaver-Burk line slopes versus peptide concentrations.

The target in experiment [2] is T1, renin. As to the kind of experiment: Intrinsic fluorescence emission of renin with peptides. Type of experiment: binding. On the procedure: Fluorescence emission spectra were obtained using the method of Li et al.. Briefly, 25 µL of 1 U/mL ACE (prepared in 50 mM Tris–HCl buffer, pH 7.5, containing 300 mM NaCl) or 25 µL of 250 µg/mL renin (prepared in 50 mM Tris–HCl buffer, pH 8.0, containing 100 mM NaCl) was mixed with 50 µL of peptide solution and 25 µL of the appropriate buffer to yield a 100 µL assay solution. Emission spectra were recorded at 25°C using a micro quartz cell (100 µL capacity) on a JASCO FP-6300 spectrofluorimeter (JASCO, Tokyo, Japan). ACE or renin assay solutions were excited at 280 nm and emission recorded from 290 to 450 nm. Emission spectrum of the respective buffer, peptides and enzymes was subtracted from the emission spectrum of each assay solution.

Experiment [3] deals with T1, renin. The experiment in a line: Far-UV circular dichroism of renin-peptide complex. Conditions: for Unordered / α-helix / β-sheet / β-turn: renin. The method, then:
(§2) Far-UV CD spectra were obtained using a JASCO J-815 spectropolarimeter (JASCO, Tokyo, Japan) under constant nitrogen flush according to the method of Omoni and Aluko [11]. A 0.5 mm pathlength quartz cell was used for the far UV (190–240 nm) measurements and each final spectrum was the average of three consecutive scans with simultaneous subtraction of the respective buffer, peptides and enzymes spectrum. For determining the peptide-enzyme interaction spectra, 150 µL of 1 U/mL ACE (prepared in 50 mM Tris–HCl buffer, pH 7.5, containing 300 mM NaCl) or 150 µL of 250 µg/mL renin (prepared in 50 mM Tris–HCl buffer, pH 8.0, containing 100 mM NaCl) was mixed with 50 µL of a peptide solution. The far-UV CD spectra in the 200–240 nm range were analyzed for secondary structure fractions using the online DICHROWEB procedure.
In general terms: CD spectra are sensitive to the conformation of chiral molecules.

The subject of experiment [4] is renin. Also noted: method as in earlier work. Conditions: previously determined ref 8; read-out: IC50 for renin inhibition; cited from earlier work.
In a further experiment the target is T2, Rabbit lung ACE (Oryctolagus cuniculus, UniProt P12822).
T2 construct: Rabbit lung ACE (A6778, 98% purity); purchased Sigma-Aldrich A6778; host or cells: rabbit lung (tissue-derived)
T2 sequence (P12822 34-1310): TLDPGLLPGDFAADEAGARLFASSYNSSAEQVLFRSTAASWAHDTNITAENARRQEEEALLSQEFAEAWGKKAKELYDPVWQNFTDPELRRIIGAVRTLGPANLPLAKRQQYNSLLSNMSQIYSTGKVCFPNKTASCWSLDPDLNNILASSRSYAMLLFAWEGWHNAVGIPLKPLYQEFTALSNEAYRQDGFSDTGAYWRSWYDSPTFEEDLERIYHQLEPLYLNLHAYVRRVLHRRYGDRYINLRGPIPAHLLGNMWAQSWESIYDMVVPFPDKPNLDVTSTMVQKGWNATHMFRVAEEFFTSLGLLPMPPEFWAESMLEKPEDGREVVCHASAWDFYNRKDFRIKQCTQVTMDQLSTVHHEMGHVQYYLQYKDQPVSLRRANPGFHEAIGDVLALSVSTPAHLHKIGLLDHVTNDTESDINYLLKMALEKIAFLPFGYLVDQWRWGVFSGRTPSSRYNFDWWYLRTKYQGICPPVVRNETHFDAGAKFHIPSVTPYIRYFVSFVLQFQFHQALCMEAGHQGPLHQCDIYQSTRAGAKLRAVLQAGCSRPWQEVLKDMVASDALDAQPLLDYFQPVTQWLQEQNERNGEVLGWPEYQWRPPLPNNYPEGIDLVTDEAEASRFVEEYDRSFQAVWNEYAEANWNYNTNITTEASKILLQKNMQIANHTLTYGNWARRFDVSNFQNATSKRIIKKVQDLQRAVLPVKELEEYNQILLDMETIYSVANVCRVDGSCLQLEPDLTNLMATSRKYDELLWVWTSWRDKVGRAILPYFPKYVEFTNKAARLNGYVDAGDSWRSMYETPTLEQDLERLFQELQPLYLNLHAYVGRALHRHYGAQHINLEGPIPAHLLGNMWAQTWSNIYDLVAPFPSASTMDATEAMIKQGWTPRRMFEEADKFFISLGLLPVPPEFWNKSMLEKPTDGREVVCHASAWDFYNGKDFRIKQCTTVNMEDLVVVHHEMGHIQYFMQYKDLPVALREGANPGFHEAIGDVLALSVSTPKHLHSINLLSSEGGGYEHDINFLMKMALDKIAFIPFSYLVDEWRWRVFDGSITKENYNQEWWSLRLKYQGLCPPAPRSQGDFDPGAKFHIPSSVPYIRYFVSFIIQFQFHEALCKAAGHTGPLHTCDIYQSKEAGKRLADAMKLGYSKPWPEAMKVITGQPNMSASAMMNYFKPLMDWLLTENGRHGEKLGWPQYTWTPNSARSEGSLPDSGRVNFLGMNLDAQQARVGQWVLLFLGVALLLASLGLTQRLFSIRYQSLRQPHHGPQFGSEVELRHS
The experiment in a line: Kinetics of ACE inhibition (Lineweaver-Burk, FAPGG substrate). The class given is biochemical. On the procedure: as §1

Experiment [5] has as its target T3, ACE (Oryctolagus cuniculus, UniProt P12822).
T3 construct: Rabbit lung ACE (A6778, 98% purity); purchased Sigma-Aldrich A6778; host or cells: rabbit lung (tissue-derived)
T3 sequence (P12822 34-1310): T2 sequence (P12822 34-1310)
As to the kind of experiment: Far-UV circular dichroism of ACE-peptide complex. Also noted: species or system Rabbit. The method, then: as §2

Experiment [6] concerns ACE. Also noted: method as in earlier work. To be noted: previously determined ref 8; read-out: IC50 for ACE inhibition; cited from earlier work.
Experiment [7] deals with ACE. To be noted: cited from earlier work.

Where “and” joins values, the source holds several entries; their conditions need not be identical. Equal entries are not always repeated. Residues, ends and D or L forms follow the SMILES beside them.

By Ki is commonly meant the equilibrium dissociation constant of an inhibitor or competing ligand from its target. As a reminder, the IC50 is the concentration that inhibits the measured activity by half.

Turning to `CC(C)C[C@H](N)C(=O)N[C@@H](Cc1ccc(O)cc1)C(=O)O` [LY, Leu-Tyr], on renin [1], the “Mode of renin inhibition” value is reported as “uncompetitive” and the inhibition constant (Ki) was determined as 2240 µM. Moreover, on renin [1] (LY 0.8493 mM), the “K′m” value was 2.45 µM and the “V′max” value turned out to be 17.74 FI/min. On renin [1] (LY 1.6986 mM), the “K′m” value worked out at 3.11 µM and the “V′max” value came to 17.63 FI/min. Also, on renin [2] (0.170 mM peptide), the “λmax of renin emission” value turned out to be 326 nm. Besides, on renin [3] (peptide 12.5 µg/mL), the Unordered is 30.37±0.23^F %, the α-helix is recorded as 4.63±0.12^B %, the β-sheet is 44.41±0.61^B % and the β-turn was 19.41±0.17^B %. In addition, at renin [3] (peptide 25 µg/mL), the Unordered was 74.87% and 74.87±0.31^B %; the α-helix is recorded as 2.63±0.32^C %; the β-sheet was 4.33±0.32^E %; the β-turn was 19.73±1.45^B %. In addition, in the experiment with renin [4], the IC50 is 1870 µM.
For the compound `CC(C)C[C@H](NC(=O)[C@H](C)NC(=O)[C@@H](N)CCCNC(=N)N)C(=O)N1CCC[C@H]1C(=O)O` [RALP, Arg-Ala-Leu-Pro] (H-RALP-OH), the Ki on Rabbit lung ACE (ACE, secondary plot of Lineweaver-Burk slopes, read-out: Ki (enzyme-inhibitor dissociation constant)) was found to be 104 µM; at renin [1] it was 285 µM.
For `C[C@@H](O)[C@H](N)C(=O)N[C@@H](Cc1ccccc1)C(=O)O` [TF, Thr-Phe] (H-Thr-Phe-OH; N-terminus and C-terminus assumed), the “K′m” value at Rabbit lung ACE (ACE, TF 0.1887 mM) is 1.0088 mM; at Rabbit lung ACE (ACE, TF 0.7510 mM), 0.5546 mM; at renin [1] (TF 0.9387 mM) it was 4.78 µM; on renin [1] (TF 3.7551 mM) it was 4.41 µM. Besides, the “V′max” value at Rabbit lung ACE (ACE, TF 0.1887 mM) was 0.0185 ΔA/min; on Rabbit lung ACE (ACE, TF 0.7510 mM), 0.0097 ΔA/min; at renin [1] (TF 0.9387 mM), 25.89 FI/min; at renin [1] (TF 3.7551 mM) it was 17.20 FI/min. The “Mode of ACE inhibition” value at Rabbit lung ACE (Lineweaver-Burk plots) is on record as “mixed-type”. The “Mode of renin inhibition” value on renin [1] is on record as “non-competitive”. Besides, the “λmax of renin emission” value on renin [2] (0.047 mM peptide, 328.5 nm without peptide) turned out to be 326 nm; on renin [2] (0.094 mM peptide, 328.5 nm without peptide) it was 327 nm. At renin [2] (renin paragraph (printed ACE FI), LY at 0.170 mM, concentration for TF, RALP not given), the “Decrease in FI” value turned out to be 47%. The Unordered at ACE [5] (peptide 12.5 µg/mL) is 22.31±2.25^E %; at ACE [5] (peptide 25 µg/mL), 39.9±1.56^B %; on renin [3] (peptide 12.5 µg/mL), 28.91±0.25^G %; at renin [3] (peptide 25 µg/mL), 72.25±0.21^C %. For the same compound, the α-helix was 16.55±0.49^B % on ACE [5] (peptide 12.5 µg/mL), 13.43±0.72^C % on ACE [5] (peptide 25 µg/mL), 2.91±0.26^C % at renin [3] (peptide 12.5 µg/mL) and 0.95±0.07^D % at renin [3] (peptide 25 µg/mL). For the same compound, the β-sheet at ACE [5] (peptide 12.5 µg/mL) was 41.67±2.17% and 41.67±2.17^A %; at ACE [5] (peptide 25 µg/mL) it was 29.17±0.86% and 29.17±0.86^B %; on renin [3] (peptide 12.5 µg/mL), 46.97±0.31^A %; on renin [3] (peptide 25 µg/mL) it was 7.91±0.85^D %. In addition, the β-turn was 16.97±0.31^C % at ACE [5] (peptide 12.5 µg/mL), 17.33±0.64^C % on ACE [5] (peptide 25 µg/mL), 21.37±0.06^A % at renin [3] (peptide 12.5 µg/mL) and 18.95±0.21^B % on renin [3] (peptide 25 µg/mL). The “Factor of increase of unordered fraction in renin” value on renin [3] (0.094 mM peptide) was 2.25. Moreover, the “Factor of reduction of β-sheet fraction in renin” value at renin [3] (0.094 mM peptide) is reported as around 6. Moreover, the IC50 with ACE [6] was 810 µM; in the experiment on renin [4] it was 3060 µM.
With AWLHPGAPKVF, the “Mode of ACE inhibition” value in the experiment on ACE [7] was “competitive”.
FEDYVPLSCF: the “Mode of ACE inhibition” value in the experiment on ACE [7] is “mixed-type”.
Regarding FNVPLYE, the “Mode of ACE inhibition” value with ACE [7] was “mixed-type”.
For RMLGQTP, the “Mode of ACE inhibition” value in the experiment on ACE [7] is “mixed-type”.

Values taken from publication PMC3946342, “Evaluating Molecular Mechanism of Hypotensive Peptides Interactions with Renin and Angiotensin Converting Enzyme” (PLoS ONE, 2014).
